Measurements as given in PMC10141580, “Cyclic Dichalcogenides Extend the Reach of Bioreductive Prodrugs to Harness Thiol/Disulfide Oxidoreductases: Applications to seco-Duocarmycins Targeting the Thioredoxin System” (ACS Central Science, 2023).
Like-named read-outs stand apart in the source and are kept apart here.

Test system: panel of 140 standard cancer cell lines
Experiment: ProliFiler-140 cancer cell line screen (CellTiterGlo, 72 h)
Type: cell-based
Procedure: Incubations were performed for 72 h before automated viability readout with CellTiterGlo (Figure 8).
End of Figure S11 (part 5 of 5): ProliFiler-140 cancer cell line screening for cytotoxicity of the prodrugs.
8-data-point dose response curves from CellTiter-Glo® viability readout.
ProliFiler-140 cell line panel part V

## COc1cccc2c1C(=O)c1c(O)c3c(c(O)c1C2=O)C[C@@](O)(C(=O)CO)C[C@@H]3O[C@H]1C[C@H](N)[C@H](O)[C@H](C)O1 [doxorubicin, reference compound]
Homo sapiens, NCI-H2009, NCI-H2009 (Lung), read-out: IC50 [M] (ProliFiler-140)
  IC50: 1.41e-07 M
Homo sapiens, NCI-H2228, H2228 (Lung), read-out: IC50 [M] (ProliFiler-140)
  IC50: 5.73e-08 M
Homo sapiens, NCI-H2286, NCI-H2286 (Lung), read-out: IC50 [M] (ProliFiler-140)
  IC50: 4.4e-08 M
Homo sapiens, NCI-N87, NCI-N87 (Stomach), read-out: IC50 [M] (ProliFiler-140)
  IC50: 2e-07 M
Homo sapiens, OCI-AML-3, OCI-AML3 (Blood), read-out: IC50 [M] (ProliFiler-140)
  IC50: 7.6e-08 M
Homo sapiens, OCI-AML-5, OCI-AML5 (Blood), read-out: IC50 [M] (ProliFiler-140)
  IC50: 3.1e-08 M
Homo sapiens, OCI-LY19, OCI-LY19 (Blood), read-out: IC50 [M] (ProliFiler-140)
  IC50: 5.55e-09 M
Homo sapiens, OPM-2, OPM-2 (Blood), read-out: IC50 [M] (ProliFiler-140)
  IC50: 2.43e-07 M
Homo sapiens, OVCAR-3, OVCAR-3 (Ovary), read-out: IC50 [M] (ProliFiler-140)
  IC50: 3.7e-07 M
Homo sapiens, OVCAR-3, OVCAR-3, read-out: IC50
  IC50: 3.7e-07 M
Homo sapiens, P31-FUJ, P31/FUJ (Blood), read-out: IC50 [M] (ProliFiler-140)
  IC50: 1e-07 M
Homo sapiens, PANC-1, PANC-1 (Pancreas), read-out: IC50 [M] (ProliFiler-140)
  IC50: 8e-07 M
Homo sapiens, RL95-2, RL95-2 (Endometrium), read-out: IC50 [M] (ProliFiler-140)
  IC50: 1.97e-07 M
Homo sapiens, RPMI-8226, RPMI 8226 (Blood), read-out: IC50 [M] (ProliFiler-140)
  IC50: 8.84e-08 M
Homo sapiens, SAOS-2, Saos-2 EC (Bone), read-out: IC50 [M] (ProliFiler-140)
  IC50: 2.02e-07 M
Homo sapiens, SCLC-21H, SCLC-21H (Lung), read-out: IC50 [M] (ProliFiler-140)
  IC50: 2.91e-07 M
Homo sapiens, SJSA-1, SJSA-1 (Bone), read-out: IC50 [M] (ProliFiler-140)
  IC50: 4.01e-07 M
Homo sapiens, SK-BR-3, SK-BR-3 (Breast), read-out: IC50 [M] (ProliFiler-140)
  IC50: 1.3e-07 M
Homo sapiens, SK-ES1, SK-ES-1 (Bone), read-out: IC50 [M] (ProliFiler-140)
  IC50: 2.61e-08 M
Homo sapiens, SK-LU-1, SK-LU-1 (Lung), read-out: IC50 [M] (ProliFiler-140)
  IC50: 2.7e-07 M
Homo sapiens, SK-MEL3, SK-MEL-3 (Skin), read-out: IC50 [M] (ProliFiler-140)
  IC50: 5.1e-07 M
Homo sapiens, SK-N-FI, SK-N-FI (Brain), read-out: IC50 [M] (ProliFiler-140)
  IC50: 1.36e-06 M
Homo sapiens, SK-N-MC, SK-N-MC (Brain), read-out: IC50 [M] (ProliFiler-140)
  IC50: 1.5e-08 M
Homo sapiens, SK-N-SH, SK-N-SH (Brain), read-out: IC50 [M] (ProliFiler-140)
  IC50: 9.8e-08 M
Homo sapiens, SK-OV-3, SK-OV3 (Ovary), read-out: IC50 [M] (ProliFiler-140)
  IC50: 1.76e-07 M
Homo sapiens, SNU1, SNU-1 (Stomach), read-out: IC50 [M] (ProliFiler-140)
  IC50: 5.9e-08 M
Homo sapiens, SNU-16, SNU-16 (Stomach), read-out: IC50 [M] (ProliFiler-140)
  IC50: 1.37e-07 M
Homo sapiens, SU-DHL-5, SU-DHL-5 (Blood), read-out: IC50 [M] (ProliFiler-140)
  IC50: 9.1e-09 M
Homo sapiens, SW480, SW480 (Colon), read-out: IC50 [M] (ProliFiler-140)
  IC50: 1.2e-07 M
Homo sapiens, SW948, SW948 (Colon), read-out: IC50 [M] (ProliFiler-140)
  IC50: 3.46e-07 M
Homo sapiens, SW1783, SW-1783 (Brain), read-out: IC50 [M] (ProliFiler-140)
  IC50: 2.99e-07 M
Homo sapiens, SW-620, SW620 (Colon), read-out: IC50 [M] (ProliFiler-140)
  IC50: 3.06e-07 M
Homo sapiens, SiHa, SiHa (Ovary), read-out: IC50 [M] (ProliFiler-140)
  IC50: 1.47e-07 M
Homo sapiens, T47D, T-47D (Breast), read-out: IC50 [M] (ProliFiler-140)
  IC50: 4.3e-07 M
Homo sapiens, T98G, T98G (Brain), read-out: IC50 [M] (ProliFiler-140)
  IC50: 1.17e-06 M
Homo sapiens, U2OS, U2OS (Bone), read-out: IC50 [M] (ProliFiler-140)
  IC50: 1.14e-07 M
Homo sapiens, U-87 MG, U87MG (Brain), read-out: IC50 [M] (ProliFiler-140)
  IC50: 1.6e-07 M
Homo sapiens, U-118-MG, U118MG (Brain), read-out: IC50 [M] (ProliFiler-140)
  IC50: 2.57e-07 M
Homo sapiens, U-251, U251MG (Brain), read-out: IC50 [M] (ProliFiler-140)
  IC50: 7.8e-07 M
Homo sapiens, U-266, U-266 (Blood), read-out: IC50 [M] (ProliFiler-140)
  IC50: 1.11e-07 M
Homo sapiens, U-937, U-937 (Blood), read-out: IC50 [M] (ProliFiler-140)
  IC50: 2.57e-08 M
Homo sapiens, ZR-75-1, ZR-75-1 (Breast), read-out: IC50 [M] (ProliFiler-140)
  IC50: 1.35e-06 M
Ishikawa (Endometrium), listed as Dox, read-out: IC50 [M] (ProliFiler-140)
  IC50: 7.74e-08 M
J82 (Bladder), read-out: IC50 [M] (ProliFiler-140)
  IC50: 7.98e-07 M
JIMT-1 (Breast), listed as Dox, read-out: IC50 [M] (ProliFiler-140)
  IC50: 1.29e-06 M
Jurkat (Blood), listed as Dox, read-out: IC50 [M] (ProliFiler-140)
  IC50: 4e-08 M
K562 (Blood), listed as Dox, read-out: IC50 [M] (ProliFiler-140)
  IC50: 4.42e-07 M
KG-1 (Blood), read-out: IC50 [M] (ProliFiler-140)
  IC50: 1.21e-06 M
KG-1 a (Blood), listed as Dox, read-out: IC50 [M] (ProliFiler-140)
  IC50: 4.9e-07 M
Kato III (Stomach), listed as Dox, read-out: IC50 [M] (ProliFiler-140)
  IC50: 8.99e-07 M
LN229 (Brain), listed as Dox, read-out: IC50 [M] (ProliFiler-140)
  IC50: 2.2e-07 M
LOU-NH91 (Lung), listed as Dox, read-out: IC50 [M] (ProliFiler-140)
  IC50: 2.89e-07 M
LOU-NH91, LOU-NH91 (Lung), read-out: IC50 [M] (ProliFiler-140)
  IC50: 2.9e-07 M
LP-1 (Blood), listed as Dox, read-out: IC50 [M] (ProliFiler-140)
  IC50: 6.62e-07 M
LP-1 (Blood), read-out: IC50 [M] (ProliFiler-140)
  IC50: 6.6e-07 M
LnCap (Prostate), listed as Dox, read-out: IC50 [M] (ProliFiler-140)
  IC50: 1.92e-07 M
M07e (Blood), listed as Dox, read-out: IC50 [M] (ProliFiler-140)
  IC50: 4.6e-08 M
M-07e, M07e (Blood), read-out: IC50 [M] (ProliFiler-140)
  IC50: 4.63e-08 M
